Source: ChEMBL document CHEMBL1154288, “The discovery and unique pharmacological profile of RO4938581 and RO4882224 as potent and selective GABAA alpha5 inverse agonists for the treatment of cognitive dysfunction” (Bioorg Med Chem Lett, 2009)
≈ marks a conversion by molar mass, not a printed value.

Legend:
[1] = Selectivity ratio of Ki for cloned human GABA alpha-2-beta-3-gamma-2 receptor expressed in insect SF9 cells to Ki for cloned human GABA alpha-5-beta-3-gamma-2 receptor expressed in insect SF9 cells
[2] = Selectivity ratio of Ki for cloned human GABA alpha-3-beta-3-gamma-2 receptor expressed in insect SF9 cells to Ki for cloned human GABA alpha-5-beta-3-gamma-2 receptor expressed in insect SF9 cells
[3] = Selectivity ratio of Ki for cloned human GABA alpha-1-beta-3-gamma-2 receptor expressed in insect SF9 cells to Ki for cloned human GABA alpha-5-beta-3-gamma-2 receptor expressed in insect SF9 cells
[4] = molecular target: GABA A receptor alpha-5/beta-3/gamma-2 (Rattus norvegicus) (UniProt P18508+P19969+P63079); experiment: Inverse agonist activity at rat GABA alpha-5-beta-3-gamma-2 receptor expressed in HEK293 cells by electrophysiology assay relative to GABA; assay type: functional, cell-based
[5] = Oral bioavailability in rat; assay type: ADME, organism-based; settings: in vivo
[6] = Solubility by lypophlisation solubility assay; assay type: physicochemical
[7] = Lipophilicity, log D at pH 7.4; assay type: physicochemical; settings: buffer
[8] = Clearance in rat; assay type: ADME, organism-based; settings: in vivo
HEK293 [9] = experiment: Selectivity ratio of Ki for cloned human GABA alpha-3-beta-3-gamma-2 receptor expressed in HEK293 cells to Ki for cloned human GABA alpha-5-beta-3-gamma-2 receptor expressed in HEK293 cells; assay type: cell-based
HEK293 [10] = experiment: Selectivity ratio of Ki for cloned human GABA alpha-2-beta-3-gamma-2 receptor expressed in HEK293 cells to Ki for cloned human GABA alpha-5-beta-3-gamma-2 receptor expressed in HEK293 cells; assay type: cell-based
[11] = Permeability by PAMPA; assay type: ADME; settings: read-out: permeability
[12] = molecular target: GABA-A receptor; alpha-1/beta-2/gamma-2 (Rattus norvegicus) (UniProt P18508+P62813+P63138); experiment: Inverse agonist activity at rat GABA alpha-1-beta-3-gamma-2 receptor expressed in HEK293 cells by electrophysiology assay relative to GABA; assay type: functional, cell-based
[13] = Half life in rat; assay type: ADME, organism-based; settings: in vivo
HEK293 [14] = experiment: Selectivity ratio of Ki for cloned human GABA alpha-1-beta-3-gamma-2 receptor expressed in HEK293 cells to Ki for cloned human GABA alpha-5-beta-3-gamma-2 receptor expressed in HEK293 cells; assay type: cell-based
[15] = molecular target: T1, GABA-A receptor; alpha-5/beta-3/gamma-2 (Homo sapiens, UniProt P18507+P28472+P31644); experiment: Displacement of [3H]Flumazenil from cloned human GABA alpha-5-beta-3-gamma-2 receptor expressed in HEK293 cells; assay type: cell-based
T1 sequence (P18507 whole entry): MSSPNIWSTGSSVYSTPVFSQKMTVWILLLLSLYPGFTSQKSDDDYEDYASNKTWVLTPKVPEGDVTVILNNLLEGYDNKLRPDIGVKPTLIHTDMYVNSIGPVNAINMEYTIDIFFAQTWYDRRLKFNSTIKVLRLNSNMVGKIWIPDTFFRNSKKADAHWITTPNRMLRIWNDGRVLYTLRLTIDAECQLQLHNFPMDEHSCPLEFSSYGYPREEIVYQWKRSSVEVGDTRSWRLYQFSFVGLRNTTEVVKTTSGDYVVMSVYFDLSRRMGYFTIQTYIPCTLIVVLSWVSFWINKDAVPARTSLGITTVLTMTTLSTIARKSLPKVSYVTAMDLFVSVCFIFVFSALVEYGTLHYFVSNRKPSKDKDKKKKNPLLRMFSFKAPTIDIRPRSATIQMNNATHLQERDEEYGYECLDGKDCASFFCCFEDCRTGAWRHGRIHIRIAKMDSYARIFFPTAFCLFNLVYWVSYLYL
T1 sequence (P28472 whole entry): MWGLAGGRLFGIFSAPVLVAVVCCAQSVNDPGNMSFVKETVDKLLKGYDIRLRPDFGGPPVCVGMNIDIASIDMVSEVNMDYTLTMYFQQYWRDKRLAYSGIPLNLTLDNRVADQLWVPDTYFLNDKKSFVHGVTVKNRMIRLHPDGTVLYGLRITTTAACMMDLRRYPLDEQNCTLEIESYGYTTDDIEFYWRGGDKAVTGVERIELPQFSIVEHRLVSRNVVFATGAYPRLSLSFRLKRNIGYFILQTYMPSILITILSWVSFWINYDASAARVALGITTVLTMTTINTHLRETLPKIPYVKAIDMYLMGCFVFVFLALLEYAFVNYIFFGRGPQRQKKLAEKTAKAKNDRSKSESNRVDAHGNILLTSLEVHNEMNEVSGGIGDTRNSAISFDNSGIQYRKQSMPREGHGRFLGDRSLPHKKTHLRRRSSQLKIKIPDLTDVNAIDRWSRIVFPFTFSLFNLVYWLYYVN
T1 sequence (P31644 whole entry): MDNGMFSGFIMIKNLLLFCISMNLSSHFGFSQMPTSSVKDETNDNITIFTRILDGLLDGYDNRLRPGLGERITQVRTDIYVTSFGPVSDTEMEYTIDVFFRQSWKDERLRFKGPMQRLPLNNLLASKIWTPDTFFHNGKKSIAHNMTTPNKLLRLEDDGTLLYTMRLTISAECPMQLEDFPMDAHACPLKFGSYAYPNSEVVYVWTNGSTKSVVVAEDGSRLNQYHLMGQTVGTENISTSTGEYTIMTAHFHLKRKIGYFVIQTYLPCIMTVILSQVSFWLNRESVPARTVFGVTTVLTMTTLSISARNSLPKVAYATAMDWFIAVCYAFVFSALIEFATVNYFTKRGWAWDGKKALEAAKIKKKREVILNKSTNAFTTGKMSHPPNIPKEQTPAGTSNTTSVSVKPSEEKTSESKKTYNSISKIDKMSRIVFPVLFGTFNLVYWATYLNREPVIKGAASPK

[16] = Volume of distribution at steady state in rat; assay type: ADME, organism-based; settings: in vivo, read-out: Vdss
[17] = molecular target: T1, GABA-A receptor; alpha-5/beta-3/gamma-2; experiment: Displacement of [3H]Flumazenil from human GABA alpha-5-beta-3-gamma-2 receptor expressed in insect SF9 cells
[18] = molecular target: GABA A receptor alpha-2/beta-2/gamma-2 (Rattus norvegicus) (UniProt P18508+P23576+P63138); experiment: Inverse agonist activity at rat GABA alpha-2-beta-3-gamma-2 receptor expressed in HEK293 cells by electrophysiology assay relative to GABA; assay type: functional, cell-based
[19] = molecular target: T2, GABA-A receptor; alpha-3/beta-3/gamma-2 (Homo sapiens, UniProt P18507+P28472+P34903); experiment: Displacement of [3H]Flumazenil from cloned human GABA alpha-3-beta-3-gamma-2 receptor expressed in HEK293 cells; assay type: cell-based
T2 sequence (P18507 whole entry): T1 sequence (P18507 whole entry)
T2 sequence (P28472 whole entry): T1 sequence (P28472 whole entry)
T2 sequence (P34903 whole entry): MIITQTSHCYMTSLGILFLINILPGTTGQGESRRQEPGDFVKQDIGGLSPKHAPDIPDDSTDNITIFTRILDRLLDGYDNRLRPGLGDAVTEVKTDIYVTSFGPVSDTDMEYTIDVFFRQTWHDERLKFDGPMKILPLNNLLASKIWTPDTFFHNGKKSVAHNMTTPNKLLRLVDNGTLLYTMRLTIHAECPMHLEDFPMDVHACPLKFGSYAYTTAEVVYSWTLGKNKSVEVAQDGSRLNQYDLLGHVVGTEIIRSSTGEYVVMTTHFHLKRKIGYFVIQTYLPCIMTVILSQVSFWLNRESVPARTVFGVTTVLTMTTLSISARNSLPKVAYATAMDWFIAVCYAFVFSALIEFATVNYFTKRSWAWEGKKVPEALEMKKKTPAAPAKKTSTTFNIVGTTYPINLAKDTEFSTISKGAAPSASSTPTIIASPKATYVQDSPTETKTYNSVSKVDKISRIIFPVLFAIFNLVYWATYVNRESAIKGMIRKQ

[20] = molecular target: T3, GABA-A receptor; alpha-1/beta-3/gamma-2 (Homo sapiens, UniProt P14867+P18507+P28472); experiment: Displacement of [3H]Flumazenil from cloned human GABA alpha-1-beta-3-gamma-2 receptor expressed in HEK293 cells; assay type: cell-based
T3 sequence (P14867 whole entry): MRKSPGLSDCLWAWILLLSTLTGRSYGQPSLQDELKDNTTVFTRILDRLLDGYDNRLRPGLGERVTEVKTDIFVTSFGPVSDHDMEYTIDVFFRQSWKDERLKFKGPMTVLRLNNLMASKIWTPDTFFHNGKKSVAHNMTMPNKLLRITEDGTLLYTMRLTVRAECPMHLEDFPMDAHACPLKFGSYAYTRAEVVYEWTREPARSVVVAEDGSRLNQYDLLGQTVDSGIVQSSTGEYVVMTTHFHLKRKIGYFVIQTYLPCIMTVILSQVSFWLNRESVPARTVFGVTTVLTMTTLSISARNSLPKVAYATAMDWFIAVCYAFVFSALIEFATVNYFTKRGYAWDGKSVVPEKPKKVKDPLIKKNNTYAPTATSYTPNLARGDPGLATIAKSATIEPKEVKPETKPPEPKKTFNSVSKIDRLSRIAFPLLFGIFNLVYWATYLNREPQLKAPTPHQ
T3 sequence (P18507 whole entry): T1 sequence (P18507 whole entry)
T3 sequence (P28472 whole entry): T1 sequence (P28472 whole entry)

[21] = molecular target: Gamma-aminobutyric acid receptor subunit alpha-3 (Rattus norvegicus) (UniProt P20236); experiment: Inverse agonist activity at rat GABA alpha-3-beta-3-gamma-2 receptor expressed in HEK293 cells by electrophysiology assay relative to GABA; assay type: functional, cell-based
[22] = molecular target: T4, GABA-A receptor; alpha-2/beta-3/gamma-2 (Homo sapiens, UniProt P18507+P28472+P47869); experiment: Displacement of [3H]Flumazenil from cloned human GABA alpha-2-beta-3-gamma-2 receptor expressed in HEK293 cells; assay type: cell-based
T4 sequence (P18507 whole entry): T1 sequence (P18507 whole entry)
T4 sequence (P28472 whole entry): T1 sequence (P28472 whole entry)
T4 sequence (P47869 whole entry): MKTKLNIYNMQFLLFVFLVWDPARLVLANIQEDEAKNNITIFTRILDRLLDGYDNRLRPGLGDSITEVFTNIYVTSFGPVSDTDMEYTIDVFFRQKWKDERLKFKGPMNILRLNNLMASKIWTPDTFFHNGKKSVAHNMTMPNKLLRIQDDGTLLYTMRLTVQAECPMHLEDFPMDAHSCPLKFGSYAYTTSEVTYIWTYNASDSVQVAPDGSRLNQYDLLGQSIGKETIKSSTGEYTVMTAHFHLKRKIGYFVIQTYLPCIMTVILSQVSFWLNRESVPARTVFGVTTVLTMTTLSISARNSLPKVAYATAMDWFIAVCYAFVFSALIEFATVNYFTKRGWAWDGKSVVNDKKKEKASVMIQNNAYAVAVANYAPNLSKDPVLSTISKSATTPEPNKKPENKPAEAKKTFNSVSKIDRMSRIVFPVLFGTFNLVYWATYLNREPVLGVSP

[23] = molecular target: GABA-A receptor; alpha-5/beta-3/gamma-2 (Homo sapiens) (UniProt P18507+P28472+P31644); experiment: Inverse agonist activity at human GABA alpha-5-beta-3-gamma-2 receptor expressed in Xenopus laevis oocyts by electrophysiology assay relative to GABA; assay type: functional

Gamma-aminobutyric acid receptor subunit alpha-3 (Rattus norvegicus), sequence (P20236 whole entry): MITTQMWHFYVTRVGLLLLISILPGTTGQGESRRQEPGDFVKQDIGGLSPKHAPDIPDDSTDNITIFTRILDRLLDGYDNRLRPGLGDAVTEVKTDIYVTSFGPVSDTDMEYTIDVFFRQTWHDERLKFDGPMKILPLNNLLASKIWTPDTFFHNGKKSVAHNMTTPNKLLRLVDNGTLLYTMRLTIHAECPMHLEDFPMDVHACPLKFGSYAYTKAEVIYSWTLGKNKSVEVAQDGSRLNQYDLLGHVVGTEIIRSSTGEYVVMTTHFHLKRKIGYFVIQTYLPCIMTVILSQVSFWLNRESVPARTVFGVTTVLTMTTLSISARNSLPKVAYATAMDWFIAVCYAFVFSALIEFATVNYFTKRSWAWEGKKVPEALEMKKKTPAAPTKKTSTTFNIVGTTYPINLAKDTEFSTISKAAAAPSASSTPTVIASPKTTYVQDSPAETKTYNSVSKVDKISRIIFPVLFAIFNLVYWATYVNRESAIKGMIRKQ

Structure (SMILES) | Ratio Ki [1] | Ratio Ki [2] | Ratio Ki [3] | Efficacy [4] | Ratio Ki (HEK293 [9]) | Ratio Ki (HEK293 [10]) | Ratio Ki (HEK293 [14]) | Ki [15] | Ki [17] | further results
c1ccc2c(c1)-c1ncnn1Cc1cncn1-2 | 0.05 | 0.06 | 15 | -37% | – | – | – | – | – | –
Cc1ncn2c1Cn1ncnc1-c1cc(Br)ccc1-2 | – | – | – | -42% | 21 | 30 | 22 | 6.2 nM | – | bioavailability [5]: 80%; solubility [6]: 78 µg/mL (≈ 247 µM); logD [7]: 1.6; clearance [8]: 0.6 mL/min/kg; Papp [11]: 7.6 ×10⁻⁶ cm/s; Efficacy [12]: -9%; half-life [13]: 7.7 h; Vd [16]: 0.4 L/kg
CCC(=O)c1ncn2c1Cn1ncnc1-c1cc(Cl)ccc1-2 | 11 | 8 | 12 | -38% | – | – | – | – | 2.6 nM | –
FC(F)c1ncn2c1Cn1ncnc1-c1cc(Cl)ccc1-2 | – | – | – | -18% | – | – | – | 5.6 nM | – | bioavailability [5]: 87%; solubility [6]: 58 µg/mL (≈ 189 µM); logD [7]: 2; Efficacy [18]: 2%; clearance [8]: 3.8 mL/min/kg; Ki [19]: 48 nM; Ki [20]: 53 nM; Papp [11]: 6.3 ×10⁻⁶ cm/s; Efficacy [21]: 21%; Efficacy [12]: -20%; half-life [13]: 0.9 h; Ki [22]: 81 nM; Vd [16]: 0.3 L/kg
Fc1ccc2c(c1)-c1ncnn1Cc1c(Cl)ncn1-2 | 4 | 3 | 3 | -33% | – | – | – | – | 0.3 nM | –
N#Cc1ncn2c1Cn1ncnc1-c1cc(Cl)ccc1-2 | 11 | 9 | 7 | -31% | – | – | – | – | 6.4 nM | –
CCOC(=O)c1ncn2c1Cn1ncnc1-c1cc(F)ccc1-2 | – | 1 | 1 | -16% | – | – | – | – | 0.2 nM | Ratio [1]: 1
Cc1ncn2c1Cn1ncnc1-c1cc(C(F)F)ccc1-2 | – | – | – | – | 30 | 62 | 29 | 2.2 nM | – | Efficacy [23]: -45%
Cc1ncn2c1Cn1ncnc1-c1c(F)cccc1-2 | – | – | – | – | 6 | 13 | 5 | 1 nM | – | Efficacy [23]: -42%
Fc1ccc2c(c1)-c1ncnn1Cc1cncn1-2 | 4 | 3 | 12 | -45% | – | – | – | – | 10 nM | –
COc1ccc2c(c1)-c1ncnn1Cc1c(C)ncn1-2 | – | – | – | – | 18 | 31 | 11 | 7.7 nM | – | Efficacy [23]: -45%
